# Experimental data from patent US9289414B2 (priority 2004, dated 2016).
# Columns and labels:
# [1] = tested on: signaling lymphocyte activator molecule associated protein (SAP); assay: PSK-induced SAP expression in lymphocytes; type: cell-based, human; settings: FIG. 2B
# SVR cells = assay: SVR cell proliferation / viability bioassay (angiogenic bioassay); type: cell-based, murine; settings: FIG. 1
# Protocol: Liquid extract of coal tar was concentrated under vacuum to get crude extract (20.0 mg). This extract was applied on a Sephadex LH 20 (3.0×100 cm) column and eluted with MeOH. The elution was monitored by TLC and similar fractions are combined to get 11 fractions. This fraction was assayed for inhibition of SVR cell viability (Arbiser et al. (1999) J. Am. Acad. Dermatol. 40, 925-929; and Bai et al. (2003) J. Biol. Chem. 278, 35501-35507). […] These changes are similar to what is observed when SVR cells are treated with an EGFR tyrosine kinase inhibitor.
# Coal tar fractions were tested for their ability to inhibit the proliferation of SVR cells, an established angiogenic bioassay.
# Drosophila embryos = assay: Normal development of Drosophila embryos; parameters: species or system Drosophila melanogaster; settings: in vivo
# Protocol: (§1) In order to test whether carbazole and its derivatives affect EGFR, the compounds were tested using a novel EGFR assay that is amenable to high throughput screening.
# EGFR = assay: Drosophila EGFR eye phenotype assay; type: in vivo, Drosophila melanogaster; settings: treatment of mutant Drosophila
# Text: The epidermal growth factor receptor pathway controls cell fate throughout phylogeny. Binding of secreted ligands to EGFR on the cell surface initiates a cascade of events that ultimately invokes transcriptional changes in the nucleus. Ligand/receptor interactions are of critical importance during Drosophila eye development, as recruitment and differentiation of almost all photoreceptors are dependent on high levels of activation of the EGFR pathway. Binding of activating ligand to EGFR results in a cascade of membranous and cytoplasmic phosphorylation events.
# as §1
# interleukin-15 (IL-15) = assay: IL-15 production by PSK-activated mononuclear cells; type: cell-based, human; settings: PSK-stimulated mononuclear cells, FIG. 2A
# Text: Cytokine production by mononuclear cells plays an important role in psoriasis. One of the cardinal cytokines involved in the pathogenesis of psoriasis is interleukin-15 (IL-15). IL-15 plays several roles that may be important in psoriasis. […] In addition, IL-15 is angiogenic in vivo.
# iNOS = iNOS expression, in vitro translation and Western blot of HEK293 and RAW264.7 cells; type: cell-based; settings: FIG. 3A-C
# Protocol: Reactions were performed at 30° C. for 90 min. Translation products were separated by SDS/PAGE, and bands, representing ^35S-labeled iNOS, were detected by Phosphoimager (Molecular Dynamics). The data shown in FIG. 3A represent two independent experiments done in duplicates.
# Transfection and stable cell line production of HEK293 cells was performed by cationic lipid-mediated transient transfection using “LipofectAMINE 2000” (Invitrogen) following manufacturer's instructions. Stable cell line expressing iNOS, were produced by using transfection of iNOS cDNA followed by positive colony selection using G418 (Invitrogen) at concentration of 600 μg/ml. iNOS Induction of mouse macrophages RAW264.7, involved incubating the cells with a mixture of mouse interferon (mIFN)-γ (10 u/ml) and LPS (100 ng/ml).
# Cell lysis was performed on collected cells. After gently rinsing the cells twice with phosphate-buffered saline, the cell layer was lysed on ice for 30 min in 40 mM Bis-Tris propane buffer, pH 7.7, 150 mM NaCl, 10% glycerol, 1% Triton-X100 in the presence of protease inhibitors (phenylmethylsulfonyl fluoride (1 mM), pepstatin-A (10 μg/ml), leupeptin (10 μg/ml), aprotinin (10 μg/ml), phenanthroline (10 μg/ml), benzamidine HCl (16 μg/ml)) (PharMingen). […] Total protein concentrations were determined by using a bicinchoninic acid reagent, following the manufacturer's instructions (Pierce). […]
# Rac = Rac activation in HUVEC after VEGF stimulation (PAK-1 PBD pull-down); type: cell-based, human; settings: carbazole 5 mg/ml pretreatment 1 hr, VEGF 20 ng/ml 5 min, FIG. 5
# Protocol: Cells were lysed with ice-cold lysis buffer, pH 7.5, containing 25 mmol/liter HEPES, 150 mmol/liter NaCl, 1% IGEPAL CA-630, 0.25% sodium deoxycholate, 10 mmol/liter MgCl2, 10% glycerol, 25 mmol/liter NaF, 1 mmol/liter EDTA, 1 mmol/liter sodium orthovanadate, 10 μg/ml leupeptin, 10 μg/ml aprotinin, and 1 mmol/liter phenylmethylsulfonyl fluoride. Activated (GTP-bound) Rac was affinity-precipitated with p21-activated kinase-1 protein binding domain peptide, which binds only to Rac-GTP and not Rac-GDP.
# p21-Activated kinase-1 protein binding domain-agarose (7.5 μg/mg cell lysate, Upstate Biotechnology) was added, and the reaction mixture was gently rocked at 4° C. for 60 min. The agarose beads were collected by pulsing for 5 s in a microcentrifuge at 14,000×g, and the beads were washed three times with 0.5 ml of lysis buffer. The agarose beads were resuspended in 40 μl of 1×SDS sample buffer and boiled for 5 min. The supernatant was separated by SDS-PAGE on a 12% gel, and the proteins were transferred to nitrocellulose membrane. After blocking for 1 h in PBS containing 5% nonfat dry milk and 0.1% Tween 20, the membrane was incubated with anti-Rac antibody (1:1000 dilution, Upstate Biotechnology) overnight. After incubation with the secondary antibody, Rac was detected by enhanced chemiluminescence.
SMILES,SAP expression [1],antiproliferative activity (SVR cells),effect on normal development of Drosophila embryos (Drosophila embryos),effect on eye phenotype of mutant Drosophila with active EGFR (EGFR),production of IL-15 (interleukin-15 (IL-15)),levels of nitric oxide synthase enzyme (iNOS),rac activation in response to VEGF (Rac)
"c1ccc2c(c1)[nH]c1ccccc12 [carbazole, 9H-Carbazole]",inhibited,mild antiproliferative activity,no effect,correction of the phenotypic defect,inhibited production of IL-15,without affecting levels of enzyme,blocks rac activation
"Oc1ccc2[nH]c3ccccc3c2c1 [3-hydroxy carbazole, 3-hydroxycarbazole]",–,more potent antiproliferative activity,–,–,–,–,–
"Oc1cccc2[nH]c3ccccc3c12 [4-hydroxy carbazole, 4-hydroxycarbazole]",–,more potent antiproliferative activity,no effect,correction of the phenotypic defect,–,–,–
"Oc1ccc2c(c1)[nH]c1ccccc12 [2-hydroxy carbazole, 2-hydroxycarbazole]",–,more potent antiproliferative activity,–,–,–,–,–
